Test results published in article PMC12656268, “Venom Peptides Across Asian and American Tarantulas Utilize Dual Pharmacology to Target Activation and Fast Inactivation of Voltage-Gated Sodium Channels” (Toxins, 2025).
Positions of bridges follow the written chain, without caps; N, C: chain ends. Residues, ends and D or L forms follow the SMILES beside them.

Assays:
hNaV1.1 = hNaV1.1 (Homo sapiens, UniProt P35498); test: hNaV1.1 peak current inhibition, automated whole-cell patch clamp (QPatch 16X); format: cell-based; settings: for IC50: HEK293 + β1, holding −80 mV, 20 ms step to 0 mV from −120 mV 200 ms prepulse, 5 min incubation, mean ± SEM, 3 to 9 independent experiments, read-out: IC50, inhibition of peak current, NaV1.1
Method: (§1) Unless otherwise specified, all cell culture reagents were obtained from Life Technologies (Carlsbad, CA, USA). The human neuroblastoma cell line SH-SY5Y (ATCC CRL-2266; Manassas, VA, USA) was maintained in RPMI medium supplemented with 15% fetal bovine serum (FBS) and 2 mM L-glutamine. HEK293 cells stably expressing human NaV channel isoforms together with the β1 auxiliary subunit (SB Drug Discovery, Glasgow, UK) were propagated in Minimal Essential Medium (MEM; Sigma-Aldrich, St. Louis, MO, USA) containing 10% FBS, 100 U/mL penicillin, 100 µg/mL streptomycin, 2 mM L-glutamine, and selective antibiotics (blasticidin, geneticin, and zeocin) at concentrations recommended by the supplier. […]
(§2) Sodium channel currents were recorded from HEK293 cells expressing human NaV isoforms together with the β1 auxiliary subunit (SB Drug Discovery, Glasgow, UK) using the QPatch 16X automated whole-cell patch-clamp platform (Sophion Bioscience A/S, Ballerup, Denmark). […] For determining the potency of Oa1a peptides to inhibit peak current, the maximum peak current within the 20 ms at 0 mV was measured. For determining the potency of Oa1a-NH2 to slow fast inactivation, peak current values were measured at 20 ms of the 0 mV depolarization step. […]
(§3) For calcium influx experiments, bioactivity comparisons between venom fractions and controls were based on the difference between the maximal and minimal fluorescence intensity values obtained from single-replicate assays. […] Reversibility and dissociation kinetics were analyzed by fitting data with a single-phase exponential decay model, while voltage-dependence of steady-state activation and inactivation parameters were derived from Boltzmann sigmoid fits of normalized conductance (G/Gmax) or current (I/Imax) values to determine the half-activation or half-inactivation voltages (V50). Data are expressed as mean ± SEM, where n represents the number of individual cells analyzed.

hNaV1.3 = hNaV1.3 (Homo sapiens, UniProt Q9NY46); test: hNaV1.3 peak current inhibition, automated whole-cell patch clamp (QPatch 16X); format: cell-based; settings: for IC50: HEK293 + β1, holding −80 mV, 20 ms step to 0 mV from −120 mV 200 ms prepulse, 5 min incubation, mean ± SEM, 3 to 9 independent experiments, read-out: IC50, inhibition of peak current, NaV1.3
Method: as §1, §2, §3

CaV3.2 = test: hCaV3.2 (T-type) current, automated whole-cell patch clamp (QPatch 16X); format: cell-based, human; settings: up to 10 μM tested; holding −90 mV, 60 ms steps to −30 mV from −120 mV 60 ms conditioning pulse; 5 min incubation; Figure S1
Method: Unless otherwise specified, all cell culture reagents were obtained from Life Technologies (Carlsbad, CA, USA). The human neuroblastoma cell line SH-SY5Y (ATCC CRL-2266; Manassas, VA, USA) was maintained in RPMI medium supplemented with 15% fetal bovine serum (FBS) and 2 mM L-glutamine. HEK293 cells stably expressing human NaV channel isoforms together with the β1 auxiliary subunit (SB Drug Discovery, Glasgow, UK) were propagated in Minimal Essential Medium (MEM; Sigma-Aldrich, St. Louis, MO, USA) containing 10% FBS, 100 U/mL penicillin, 100 µg/mL streptomycin, 2 mM L-glutamine, and selective antibiotics (blasticidin, geneticin, and zeocin) at concentrations recommended by the supplier. HEK293T cells expressing the human CaV3.2 channel (a generous gift from Prof. Emmanuel Bourinet, Institut de Génomique Fonctionnelle, Université de Montpellier, France, and Prof. Edward Perez-Reyes, University of Virginia School of Medicine, USA) were grown in Dulbecco’s MEM supplemented with 10% FBS, 100 U/mL penicillin, 100 µg/mL streptomycin, and 750 µg/mL geneticin.
CaV3.2 channel currents were recorded from HEK293 cells expressing hCaV3.2 using an automated QPatch 16X platform (Sophion Bioscience A/S). […]

hNaV1.4 = hNaV1.4 (Homo sapiens, UniProt P35499); test: hNaV1.4 peak current inhibition, automated whole-cell patch clamp (QPatch 16X); format: cell-based; settings: for IC50: HEK293 + β1, holding −80 mV, 20 ms step to 0 mV from −120 mV 200 ms prepulse, 5 min incubation, mean ± SEM, 3 to 9 independent experiments, read-out: IC50, inhibition of peak current, NaV1.4
Method: as §1, §2, §3

hNaV1.7 = hNaV1.7 (Homo sapiens, UniProt Q15858); test: hNaV1.7 peak current inhibition, automated whole-cell patch clamp (QPatch 16X); format: cell-based; settings: for IC50: HEK293 + β1, holding −80 mV, 20 ms step to 0 mV from −120 mV 200 ms prepulse, 5 min incubation, mean ± SEM, 3 to 9 independent experiments, read-out: IC50, inhibition of peak current, NaV1.7
Method: as §1, §2, §3

hNaV1.5 = hNaV1.5 (Homo sapiens, UniProt Q14524); test: hNaV1.5 peak current inhibition, automated whole-cell patch clamp (QPatch 16X); format: cell-based; settings: for IC50: HEK293 + β1, holding −80 mV, 20 ms step to 0 mV from −120 mV 200 ms prepulse, 5 min incubation, mean ± SEM, 3 to 9 independent experiments, read-out: IC50, inhibition of peak current, NaV1.5
Method: as §1, §2, §3

hNaV1.4, sequence (P35499 whole entry): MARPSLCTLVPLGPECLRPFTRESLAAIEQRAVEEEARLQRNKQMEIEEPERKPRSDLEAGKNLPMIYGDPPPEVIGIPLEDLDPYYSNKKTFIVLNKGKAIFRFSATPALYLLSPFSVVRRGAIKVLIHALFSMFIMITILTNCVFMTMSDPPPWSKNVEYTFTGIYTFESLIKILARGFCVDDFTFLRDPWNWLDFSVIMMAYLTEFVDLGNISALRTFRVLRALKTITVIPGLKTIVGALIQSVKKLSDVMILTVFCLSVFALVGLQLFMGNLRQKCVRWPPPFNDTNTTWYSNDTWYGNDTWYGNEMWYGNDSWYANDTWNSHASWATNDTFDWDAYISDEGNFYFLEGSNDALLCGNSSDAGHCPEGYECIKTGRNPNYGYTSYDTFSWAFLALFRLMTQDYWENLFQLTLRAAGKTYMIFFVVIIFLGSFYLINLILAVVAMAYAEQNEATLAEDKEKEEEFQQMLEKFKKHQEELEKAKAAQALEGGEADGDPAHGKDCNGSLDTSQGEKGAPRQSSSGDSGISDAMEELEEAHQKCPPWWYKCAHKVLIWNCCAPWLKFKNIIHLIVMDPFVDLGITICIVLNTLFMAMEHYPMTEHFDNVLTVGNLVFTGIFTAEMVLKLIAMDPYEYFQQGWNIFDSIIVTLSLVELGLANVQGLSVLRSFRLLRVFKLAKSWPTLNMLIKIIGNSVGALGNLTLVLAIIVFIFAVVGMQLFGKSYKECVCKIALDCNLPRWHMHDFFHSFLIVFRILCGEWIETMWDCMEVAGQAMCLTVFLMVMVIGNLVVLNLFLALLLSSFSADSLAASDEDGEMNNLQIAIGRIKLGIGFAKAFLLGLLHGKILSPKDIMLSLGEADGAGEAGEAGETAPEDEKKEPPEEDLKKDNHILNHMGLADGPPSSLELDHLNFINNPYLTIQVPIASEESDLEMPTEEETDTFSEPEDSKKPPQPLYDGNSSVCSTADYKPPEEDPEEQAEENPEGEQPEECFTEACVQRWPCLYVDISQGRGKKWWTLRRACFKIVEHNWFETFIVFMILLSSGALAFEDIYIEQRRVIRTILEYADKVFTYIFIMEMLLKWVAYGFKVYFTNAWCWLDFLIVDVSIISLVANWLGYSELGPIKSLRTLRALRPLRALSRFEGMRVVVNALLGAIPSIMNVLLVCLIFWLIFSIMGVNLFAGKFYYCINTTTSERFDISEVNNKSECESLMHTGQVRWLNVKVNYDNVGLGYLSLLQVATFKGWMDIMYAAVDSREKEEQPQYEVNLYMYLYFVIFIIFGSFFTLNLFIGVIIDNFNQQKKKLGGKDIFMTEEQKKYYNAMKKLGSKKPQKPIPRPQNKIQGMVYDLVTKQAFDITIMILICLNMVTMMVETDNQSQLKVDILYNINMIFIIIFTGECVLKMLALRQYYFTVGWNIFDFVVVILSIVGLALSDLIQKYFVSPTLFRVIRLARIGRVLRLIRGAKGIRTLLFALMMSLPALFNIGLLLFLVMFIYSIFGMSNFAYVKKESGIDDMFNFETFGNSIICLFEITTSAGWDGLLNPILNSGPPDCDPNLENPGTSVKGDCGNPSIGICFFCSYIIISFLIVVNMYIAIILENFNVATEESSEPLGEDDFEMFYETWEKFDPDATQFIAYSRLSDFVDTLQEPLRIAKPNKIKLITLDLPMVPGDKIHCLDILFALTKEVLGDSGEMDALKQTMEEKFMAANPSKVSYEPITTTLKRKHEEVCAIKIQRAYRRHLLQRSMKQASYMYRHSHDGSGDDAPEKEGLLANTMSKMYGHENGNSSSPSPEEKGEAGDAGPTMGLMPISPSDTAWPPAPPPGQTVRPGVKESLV
hNaV1.4, sequence (Q07699 19-218, further chain): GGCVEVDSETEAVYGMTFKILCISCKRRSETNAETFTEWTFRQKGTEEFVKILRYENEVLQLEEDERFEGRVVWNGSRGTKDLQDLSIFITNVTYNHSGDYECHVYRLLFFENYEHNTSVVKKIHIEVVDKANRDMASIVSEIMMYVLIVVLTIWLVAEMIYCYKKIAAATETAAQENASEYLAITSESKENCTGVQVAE
hNaV1.7, sequence (Q07699 19-218): as the sequence (Q07699 19-218, further chain) above
hNaV1.7, sequence (Q15858 whole entry): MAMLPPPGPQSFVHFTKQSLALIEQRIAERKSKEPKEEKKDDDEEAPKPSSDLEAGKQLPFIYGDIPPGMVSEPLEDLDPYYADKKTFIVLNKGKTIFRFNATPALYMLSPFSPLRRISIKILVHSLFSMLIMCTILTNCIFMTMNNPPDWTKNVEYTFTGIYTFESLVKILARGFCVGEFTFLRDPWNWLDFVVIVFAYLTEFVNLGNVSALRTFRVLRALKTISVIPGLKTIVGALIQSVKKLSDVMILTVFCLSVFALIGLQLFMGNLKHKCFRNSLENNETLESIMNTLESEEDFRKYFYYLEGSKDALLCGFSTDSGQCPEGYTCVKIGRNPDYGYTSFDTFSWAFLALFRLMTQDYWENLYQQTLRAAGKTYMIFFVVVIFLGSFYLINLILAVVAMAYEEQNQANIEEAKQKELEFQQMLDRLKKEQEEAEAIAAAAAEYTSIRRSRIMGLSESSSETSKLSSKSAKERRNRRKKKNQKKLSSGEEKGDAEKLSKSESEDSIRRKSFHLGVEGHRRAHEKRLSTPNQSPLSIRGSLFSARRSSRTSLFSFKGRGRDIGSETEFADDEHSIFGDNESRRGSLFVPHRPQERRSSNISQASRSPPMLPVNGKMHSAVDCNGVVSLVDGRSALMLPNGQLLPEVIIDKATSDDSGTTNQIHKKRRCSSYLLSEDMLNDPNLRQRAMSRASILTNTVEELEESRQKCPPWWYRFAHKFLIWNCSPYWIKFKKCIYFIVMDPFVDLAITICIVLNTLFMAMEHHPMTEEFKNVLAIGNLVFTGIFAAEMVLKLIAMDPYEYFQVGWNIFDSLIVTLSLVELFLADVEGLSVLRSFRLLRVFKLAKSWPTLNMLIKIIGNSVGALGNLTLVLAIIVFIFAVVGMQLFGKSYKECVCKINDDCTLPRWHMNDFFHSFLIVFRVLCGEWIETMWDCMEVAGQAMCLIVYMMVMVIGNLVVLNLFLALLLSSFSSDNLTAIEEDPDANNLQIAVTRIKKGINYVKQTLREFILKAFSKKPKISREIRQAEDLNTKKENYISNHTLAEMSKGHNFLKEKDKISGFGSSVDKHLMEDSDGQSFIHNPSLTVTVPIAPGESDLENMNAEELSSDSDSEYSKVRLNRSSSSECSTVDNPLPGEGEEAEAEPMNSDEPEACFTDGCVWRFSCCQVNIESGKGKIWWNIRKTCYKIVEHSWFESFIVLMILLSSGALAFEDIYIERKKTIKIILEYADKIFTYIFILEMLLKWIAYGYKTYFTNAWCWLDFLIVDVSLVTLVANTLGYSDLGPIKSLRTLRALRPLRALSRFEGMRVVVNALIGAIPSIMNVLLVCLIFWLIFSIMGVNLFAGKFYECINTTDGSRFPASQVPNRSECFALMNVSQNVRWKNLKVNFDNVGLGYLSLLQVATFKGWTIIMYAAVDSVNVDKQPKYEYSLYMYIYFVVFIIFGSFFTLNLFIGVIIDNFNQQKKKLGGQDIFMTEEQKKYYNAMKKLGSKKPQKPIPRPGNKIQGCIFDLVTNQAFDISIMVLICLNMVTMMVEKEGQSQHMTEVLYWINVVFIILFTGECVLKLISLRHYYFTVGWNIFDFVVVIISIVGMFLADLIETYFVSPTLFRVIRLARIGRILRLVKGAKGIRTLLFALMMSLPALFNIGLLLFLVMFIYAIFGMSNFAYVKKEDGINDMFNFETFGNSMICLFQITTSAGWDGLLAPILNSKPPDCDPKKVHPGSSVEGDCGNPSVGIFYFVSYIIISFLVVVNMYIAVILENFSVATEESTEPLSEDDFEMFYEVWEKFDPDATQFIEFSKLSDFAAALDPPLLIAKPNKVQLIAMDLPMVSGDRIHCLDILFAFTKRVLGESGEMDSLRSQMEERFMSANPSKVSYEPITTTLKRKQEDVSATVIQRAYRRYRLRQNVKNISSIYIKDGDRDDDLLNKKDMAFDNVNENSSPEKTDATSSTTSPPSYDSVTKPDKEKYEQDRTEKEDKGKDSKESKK

SMILES | IC50 (hNaV1.1) [nM] | IC50 (hNaV1.3) [nM] | Activity on CaV3.2 (CaV3.2) | IC50 (hNaV1.4) [nM] | IC50 (hNaV1.7) [nM] | IC50 (hNaV1.5) [nM] | Ratio OH/NH2 (IC50 sOa1a-OH / IC50 sOa1a-NH2), NaV1.1 (hNaV1.1; ratio of IC50 values) | Activity on NaV1.3 (in words) (hNaV1.3; tested at up to 3 μM) | Activity on NaV1.4 (in words) (hNaV1.4; tested at up to 3 μM) | Ratio OH/NH2 (IC50 sOa1a-OH / IC50 sOa1a-NH2), NaV1.7 (hNaV1.7; ratio of IC50 values) | Ratio OH/NH2 (IC50 sOa1a-OH / IC50 sOa1a-NH2), NaV1.5 (hNaV1.5; ratio of IC50 values)
CC(C)C[C@@H]1NC(=O)[C@H](Cc2ccccc2)NC(=O)[C@H](Cc2ccc(O)cc2)NC(=O)[C@H](CCCNC(=N)N)NC(=O)[C@@H](NC(=O)[C@@H](N)CCC(=O)O)CSSC[C@@H]2NC(=O)[C@@H]3CSSC[C@@H](C(=O)N[C@H](C(=O)N[C@@H](Cc4c[nH]c5ccccc45)C(=O)N[C@@H](CC(=O)O)C(=O)N[C@@H](Cc4c[nH]c5ccccc45)C(=O)N[C@H](C(=O)N[C@@H](Cc4ccccc4)C(N)=O)[C@@H](C)O)C(C)C)NC(=O)[C@H](Cc4c[nH]c5ccccc45)NC(=O)[C@H](CCC(N)=O)NC(=O)[C@H](Cc4c[nH]cn4)NC(=O)[C@H](CCCCN)NC(=O)[C@H](CC(N)=O)NC(=O)[C@H](Cc4c[nH]cn4)NC(=O)[C@H](CSSC[C@H](NC(=O)CNC(=O)CNC1=O)C(=O)N[C@@H](CO)C(=O)N[C@@H](CCC(N)=O)C(=O)NCC(=O)N[C@@H](CCC(=O)O)C(=O)N[C@@H](CCCCN)C(=O)N3)NC(=O)[C@H](C(C)C)NC(=O)[C@H](CC(C)C)NC(=O)[C@H](Cc1c[nH]cn1)NC(=O)[C@H](CCC(=O)O)NC2=O [sOa1a-NH2] (H-ECRYFLGGCSQGEKCCEHLVCHNKHQWCVWDWTF-NH2; disulfide 2-16, 9-21, 15-28; N-terminus assumed) | 17 ± 1 | 162 ± 8 | did not observe activity | 2290 ± 77 | 25 ± 0.4 | 192 ± 4 |  |  |  |  | 
CC(C)C[C@@H]1NC(=O)[C@H](Cc2ccccc2)NC(=O)[C@H](Cc2ccc(O)cc2)NC(=O)[C@H](CCCNC(=N)N)NC(=O)[C@@H](NC(=O)[C@@H](N)CCC(=O)O)CSSC[C@@H]2NC(=O)[C@@H]3CSSC[C@@H](C(=O)N[C@H](C(=O)N[C@@H](Cc4c[nH]c5ccccc45)C(=O)N[C@@H](CC(=O)O)C(=O)N[C@@H](Cc4c[nH]c5ccccc45)C(=O)N[C@H](C(=O)N[C@@H](Cc4ccccc4)C(=O)O)[C@@H](C)O)C(C)C)NC(=O)[C@H](Cc4c[nH]c5ccccc45)NC(=O)[C@H](CCC(N)=O)NC(=O)[C@H](Cc4c[nH]cn4)NC(=O)[C@H](CCCCN)NC(=O)[C@H](CC(N)=O)NC(=O)[C@H](Cc4c[nH]cn4)NC(=O)[C@H](CSSC[C@H](NC(=O)CNC(=O)CNC1=O)C(=O)N[C@@H](CO)C(=O)N[C@@H](CCC(N)=O)C(=O)NCC(=O)N[C@@H](CCC(=O)O)C(=O)N[C@@H](CCCCN)C(=O)N3)NC(=O)[C@H](C(C)C)NC(=O)[C@H](CC(C)C)NC(=O)[C@H](Cc1c[nH]cn1)NC(=O)[C@H](CCC(=O)O)NC2=O [sOa1a-OH] (H-ECRYFLGGCSQGEKCCEHLVCHNKHQWCVWDWTF-OH; disulfide 2-16, 9-21, 15-28; N-terminus assumed) | 274 ± 18 | > 3000 | did not observe activity | > 3000 | 410 ± 23 | 1270 ± 22 | 16 | no activity | no activity | 16 | 6.6
